In US8785488B2 (Exelixis Patent Company LLC, priority 2009, dated 2014):

These compounds were tested against T1, human TGR5 (h-TGR5) (Homo sapiens, UniProt Q8TDU6) (assay: TGR5/CRE-Luciferiase Assay (HEK 293 hTGR5/CRE-Luc cells)). Settings: HEK 293 hTGR5/CRE-Luc cells, 6 hours incubation, luciferase activity; Table 2; read-out: h-TGR5CRE-Luc EC50 (CRE-Luc).
T1 construct: expressed in transfected cells
T1 sequence (Q8TDU6 1-330): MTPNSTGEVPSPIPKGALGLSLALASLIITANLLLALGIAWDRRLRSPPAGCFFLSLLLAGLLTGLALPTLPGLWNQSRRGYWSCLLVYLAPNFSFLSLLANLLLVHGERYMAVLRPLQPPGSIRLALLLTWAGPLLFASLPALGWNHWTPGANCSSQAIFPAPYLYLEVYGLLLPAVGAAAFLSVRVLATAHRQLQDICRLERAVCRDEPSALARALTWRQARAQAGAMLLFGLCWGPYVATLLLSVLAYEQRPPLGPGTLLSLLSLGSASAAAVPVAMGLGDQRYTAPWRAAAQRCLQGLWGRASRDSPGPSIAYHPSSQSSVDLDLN
Assay type: cell-based
Procedure, shortened: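 HEK293 cells stably carrying hTGR5 and a CRE-luciferase reporter were exposed to serially diluted compounds (diluted in DMEM with 5% DMSO) for 6 h. Cells were then lysed in luciferase buffer, luminescence was read, and EC50 values were derived from dose-response curves.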

| EC50 [nM] | SMILES |
| --- | --- |
| 1000 to 10000 | CC(C)(c1ccc2nccnc2c1)c1nnc(SCc2ccc(Cl)c(-c3nnn[nH]3)c2)n1-c1ccc(F)cc1 [Example 46] |

Same assay, conditions: h-TGR5 CRE-Luc EC50, Table 1; read-out: CRE-Luc (EC50)

| SMILES | EC50 [nM] |
| --- | --- |
| CC(C)(O)COc1cc(C(C)(C)c2cnc(SCc3c(F)cccc3Cl)n2-c2ccc(F)cc2)ccc1Cl [1-[(2-chloro-5-{1-[2-{[(2-chloro-6-fluorophenyl)methyl]thio}-1-(4-fluorophenyl)-1H-imidazol-5-yl]-1-methylethyl}phenyl)oxy]-2-methylpropan-2-ol] | 100 to 1000 |
| CC(C)(c1ccc(Cl)c(Cl)c1)c1cnc(COc2ccnc3ccccc23)n1-c1ccc(F)cc1 [4-[({5-[1-(3,4-dichlorophenyl)-1-methylethyl]-1-(4-fluorophenyl)-1H-imidazol-2-yl}methyl)oxy]quinoline] | 1000 to 10000 |
| CCN(CC)CCOc1cc(C(C)(C)c2cnc(SCc3c(F)cccc3Cl)n2-c2ccc(F)cc2)ccc1Cl [2-[(2-chloro-5-{1-[2-{[(2-chloro-6-fluorophenyl)methyl]thio}-1-(4-fluorophenyl)-1H-imidazol-5-yl]-1-methylethyl}phenyl)oxy]-N,N-diethylethanamine] | 100 to 1000 |
| CC(C)(c1ccc(F)c(F)c1)c1cnc(SCc2ccc(F)cc2Cl)n1-c1ccc(F)cc1 [2-{[(2-chloro-4-fluorophenyl)methyl]thio}-5-[1-(3,4-difluorophenyl)-1-methylethyl]-1-(4-fluorophenyl)-1H-imidazole] | 100 to 1000 |
| COc1ccc(C(C)(C)c2cnc(SCc3ccc(Cl)cc3Cl)n2-c2ccc(F)cc2)cc1OC [5-{1-[3,4-bis(methyloxy)phenyl]-1-methylethyl}-2-{[(2,4-dichlorophenyl)methyl]thio}-1-(4-fluorophenyl)-1H-imidazole] | < 100 |
| CC(C)n1c(C(C)(C)c2ccc(Cl)c(Cl)c2)cnc1SCc1c(F)cccc1Cl [2-{[(2-chloro-6-fluorophenyl)methyl]thio}-5-[1-(3,4-dichlorophenyl)-1-methylethyl]-1-(1-methylethyl)-1H-imidazole] | 1000 to 10000 |
| CC(C)(c1ccc(Cl)c(Cl)c1)c1cnc(COc2ccc(C(N)=O)c(Cl)c2)n1-c1ccc(F)cc1 [2-chloro-4-[({5-[1-(3,4-dichlorophenyl)-1-methylethyl]-1-(4-fluorophenyl)-1H-imidazol-2-yl}methyl)oxy]benzamide] | 1000 to 10000 |
| CC(C)(c1ccc(Cl)c(Cl)c1)c1cnc(SCc2ccc(F)cc2Cl)n1-c1ccc(F)c(C(N)=O)c1 [5-(2-{[(2-chloro-4-fluorophenyl)methyl]thio}-5-[1-(3,4-dichlorophenyl)-1-methylethyl]-1H-imidazol-1-yl)-2-fluorobenzamide] | 100 to 1000 |
| CC(C)(c1ccc(Cl)c(Cl)c1)c1cnc(S(=O)(=O)Cc2c(F)cccc2Cl)n1-c1ccc(Cl)c(Cl)c1 [2-{[(2-chloro-6-fluorophenyl)methyl]sulfonyl}-1-(3,4-dichlorophenyl)-5-[1-(3,4-dichlorophenyl)-1-methylethyl]-1H-imidazole] | 1000 to 10000 |
| COCCNC(=O)c1cc(CSc2ncc(C(C)(C)c3ccc(Cl)c(Cl)c3)n2-c2ccc(F)cc2)ccc1F [5-[({5-[1-(3,4-dichlorophenyl)-1-methylethyl]-1-(4-fluorophenyl)-1H-imidazol-2-yl}thio)methyl]-2-fluoro-N-[2-(methyloxy)ethyl]benzamide] | 100 to 1000 |
| CC(C)(c1ccc(Cl)c(Cl)c1)c1cnc(SCc2ccc(F)cc2Cl)n1-c1cc(F)cc(F)c1 [2-{[(2-chloro-4-fluorophenyl)methyl]thio}-5-[1-(3,4-dichlorophenyl)-1-methylethyl]-1-(3,5-difluorophenyl)-1H-imidazole] | 100 to 1000 |
| COc1ccc(C(C)(C)c2cnc(C(=O)N3CCOCC3)n2-c2ccc(F)cc2)cc1OC [4-{[5-{1-[3,4-bis(methyloxy)phenyl]-1-methylethyl}-1-(4-fluorophenyl)-1H-imidazol-2-yl]carbonyl}morpholine] | 1000 to 10000 |

Next, values leading:

| EC50 [nM] | SMILES |
| --- | --- |
| 1000 to 10000 | CC(C)(c1ccc(F)cc1)c1cnc(SCc2ccc(S(=O)(=O)NC(=O)NN3CCCC3)cc2Cl)n1-c1ccc(F)c(F)c1 [3-chloro-4-[({1-(3,4-difluorophenyl)-5-[1-(4-fluorophenyl)-1-methylethyl]-1H-imidazol-2-yl}thio)methyl]-N-[(pyrrolidin-1-ylamino)carbonyl]benzenesulfonamide] |
| 1000 to 10000 | CN1CCN(c2cc(CSc3ncc(C(C)(C)c4ccc(Cl)c(Cl)c4)n3-c3ccc(F)cc3)ccc2F)CC1 [1-{5-[({5-[1-(3,4-dichlorophenyl)-1-methylethyl]-1-(4-fluorophenyl)-1H-imidazol-2-yl}thio)methyl]-2-fluorophenyl}-4-methylpiperazine] |
| 100 to 1000 | CC(C)(c1ccc(Cl)c(OCCN2CCOCC2)c1)c1cnc(SCc2c(F)cccc2Cl)n1-c1ccc(F)cc1 [4-{2-[(2-chloro-5-{1-[2-{[(2-chloro-6-fluorophenyl)methyl]thio}-1-(4-fluorophenyl)-1H-imidazol-5-yl]-1-methylethyl}phenyl)oxy]ethyl}morpholine] |
| 100 to 1000 | COc1cc(C(C)(C)c2cnc(SCc3ccc(S(=O)(=O)NC(=O)NCCC(=O)O)cc3Cl)n2-c2ccc(F)cc2)ccc1Cl [N-[({[3-chloro-4-({[5-{1-[4-chloro-3-(methyloxy)phenyl]-1-methylethyl}-1-(4-fluorophenyl)-1H-imidazol-2-yl]thio}methyl)phenyl]sulfonyl}amino)carbonyl]-beta-alanine] |
| 100 to 1000 | CC(C)(O)c1cccc(F)c1CSc1ncc(C(C)(C)c2ccc(Cl)c(Cl)c2)n1-c1ccc(F)cc1 [2-{2-[({5-[1-(3,4-dichlorophenyl)-1-methylethyl]-1-(4-fluorophenyl)-1H-imidazol-2-yl}thio)methyl]-3-fluorophenyl}propan-2-ol] |
| 100 to 1000 | CC(C)(c1ccc(Cl)c(Cl)c1)c1cnc(SCc2c(F)cccc2Cl)n1-c1ccc(Cl)c(F)c1 [1-(4-chloro-3-fluorophenyl)-2-{[(2-chloro-6-fluorophenyl)methyl]thio}-5-[1-(3,4-dichlorophenyl)-1-methylethyl]-1H-imidazole] |
| < 100 | COc1ccc(C(C)(C)c2cnc(S(=O)(=O)CCc3ccc(F)cc3Cl)n2-c2ccc(F)cc2)cc1OC [5-{1-[3,4-bis(methyloxy)phenyl]-1-methylethyl}-2-{[2-(2-chloro-4-fluorophenyl)ethyl]sulfonyl}-1-(4-fluorophenyl)-1H-imidazole] |
| 100 to 1000 | CC(C)(c1ccc(Cl)c(Cl)c1)c1cnc(SCc2ccc(F)c(C(=O)NCCc3c[nH]cn3)c2)n1-c1ccc(F)cc1 [5-[({5-[1-(3,4-dichlorophenyl)-1-methylethyl]-1-(4-fluorophenyl)-1H-imidazol-2-yl}thio)methyl]-2-fluoro-N-[2-(1H-imidazol-4-yl)ethyl]benzamide] |
| 1000 to 10000 | CC(C)(c1ccc(Cl)c(Cl)c1)c1cnc(CCc2ccc(S(=O)(=O)NC(=O)NN3CCCC3)cc2Cl)n1-c1ccc(F)cc1 [3-chloro-4-(2-{5-[1-(3,4-dichlorophenyl)-1-methylethyl]-1-(4-fluorophenyl)-1H-imidazol-2-yl}ethyl)-N-[(pyrrolidin-1-ylamino)carbonyl]benzenesulfonamide] |
| 100 to 1000 | CC(C)(C)OC(=O)N1CCC(CSc2ncc(C(C)(C)c3ccc(F)c(F)c3)n2-c2ccc(F)cc2)CC1 [1,1-dimethylethyl 4-[({5-[1-(3,4-difluorophenyl)-1-methylethyl]-1-(4-fluorophenyl)-1H-imidazol-2-yl}thio)methyl]piperidine-1-carboxylate] |
| 100 to 1000 | COc1ccc(C(C)(C)c2cnc(CNc3ccc(F)c(Cl)c3)n2-c2ccc(F)cc2)cc1OC [N-{[5-{1-[3,4-bis(methyloxy)phenyl]-1-methylethyl}-1-(4-fluorophenyl)-1H-imidazol-2-yl]methyl}-3-chloro-4-fluoroaniline] |
| 1000 to 10000 | COc1ccc(C(C)(C)c2cnc(C(=O)Nc3ccc(F)c(Cl)c3)n2-c2ccc(F)cc2)cc1OC [5-{1-[3,4-bis(methyloxy)phenyl]-1-methylethyl}-N-(3-chloro-4-fluorophenyl)-1-(4-fluorophenyl)-1H-imidazole-2-carboxamide] |
| 100 to 1000 | CC(C)(c1ccc(Cl)c(Cl)c1)c1cnc(SCc2ccc(Cl)cc2C(=O)O)n1-c1ccc(F)cc1 [5-chloro-2-[({5-[1-(3,4-dichlorophenyl)-1-methylethyl]-1-(4-fluorophenyl)-1H-imidazol-2-yl}thio)methyl]benzoic acid] |
| 1000 to 10000 | CC(C)(c1ccc(Cl)c(Cl)c1)c1cnc(SCC2CCNCC2)n1-c1ccc(F)cc1 [4-[({5-[1-(3,4-dichlorophenyl)-1-methylethyl]-1-(4-fluorophenyl)-1H-imidazol-2-yl}thio)methyl]piperidine] |
| 100 to 1000 | CC(C)(c1ccc(Cl)c(Cl)c1)c1cnc(SCc2ccc(F)c(C(=O)NCC(F)(F)F)c2)n1-c1ccc(F)cc1 [5-[({5-[1-(3,4-dichlorophenyl)-1-methylethyl]-1-(4-fluorophenyl)-1H-imidazol-2-yl}thio)methyl]-2-fluoro-N-(2,2,2-trifluoroethyl)benzamide] |
| 100 to 1000 | CC(C)(c1ccc(Cl)c(Cl)c1)c1cnc(S(=O)(=O)NCc2ccc(C(F)(F)F)cc2F)n1-c1ccc(F)cc1 [5-[1-(3,4-dichlorophenyl)-1-methylethyl]-1-(4-fluorophenyl)-N-{[2-fluoro-4-(trifluoromethyl)phenyl]methyl}-1H-imidazole-2-sulfonamide] |
| 1000 to 10000 | CC(C)(c1ccc(Cl)c(Cl)c1)c1cnc(COc2ncc(C(F)(F)F)cc2Cl)n1-c1ccc(F)cc1 [3-chloro-2-[({5-[1-(3,4-dichlorophenyl)-1-methylethyl]-1-(4-fluorophenyl)-1H-imidazol-2-yl}methyl)oxy]-5-(trifluoromethyl)pyridine] |
